Four compounds from patent publication US20250161233A1, “VINYLATION COUPLED DERIVATIVE OF BETA-ELEMENE, AND PREPARATION METHOD AND USE THEREOF IN PREPARATION OF ANTITUMOR DRUG” (HANGZHOU NORMAL UNIVERSITY, priority 2022, published 2025) can be followed below.

In general, IC50 refers to the midpoint of a concentration-inhibition curve. A lower IC50 goes with greater potency.

The subject of experiment [1] is human lung cancer cells (A549). Description: Tumor cell proliferation inhibition (CCK-8), A549. Type of experiment: cell-based. As to conditions: 48 h; for inhibition at 100 µM: read-out: Anti-proliferative activity at 100 μM by concentration (%) A549 (tumor cell inhibition rate). The protocol:
(§1) Human colon cancer cells (HCT116), human lung cancer cells (A549).
(§2) 1) The test cells in a logarithmic growth phase were trypsinized and counted, inoculated in a 96-well culture plate at a concentration of 5×10^4/mL, 100 μL per well (5×10^3 cells per well), and incubated at 37° C. in a 5% CO2 incubator for 24 h.
(§3) 2) A drug to be tested was diluted to different concentrations with McCoy'S 5A or RPMI 1640 complete medium. The experimental group was replaced with a culture solution containing different concentrations of the tested samples, and the control group was replaced with a culture solution containing the same volume of solvent (DMSO). Three parallel wells were set up in each group, and the culture was continued for 48 h in a 5% CO2 incubator at 37° C.
(§4) HCT116 cells used the McCoy'S 5A complete medium, and A549 cells used the RPMI 1640 complete medium.
(§5) 3) 10 μL of a CCK-8 solution was added to each well, incubated at 37° C. for 1 h to 4 h, and an absorbance (OD value) of each well at 490 nm was measured with a microplate reader.
(§6) 4) A survival rate and an inhibition rate were calculated with the following formulas:
(§7) Cell survival rate=[(As−Ab)/(Ac−Ab)]×100%
(§8) Inhibition rate=[(Ac−As)/(Ac−Ab)]×100%
(§9) An S-type dose-survival curve was plotted using GraphPad Prism 7.0 software and a nonlinear regression model, and IC50 values were calculated. • As: absorbance of the experimental well (medium containing cells, CCK-8, and the drug to be tested) • Ac: absorbance of control wells (medium containing cells, CCK-8, and solvent (DMSO)) • Ab: absorbance of blank wells (medium without cells and drug to be tested, CCK-8)

For experiment [2], the system named is Human colon cancer cells (HCT116). Briefly: Tumor cell proliferation inhibition (CCK-8), HCT116. The experiment is classed as cell-based. As to conditions: for inhibition at 100 µM: HCT-116, 100 μM of the compound, read-out: Anti-proliferative activity at 100 μM by concentration (%) HCT116 (tumor cell inhibition rate). On the procedure: as §1, §2, §3, §4, §5, §6, §7, §8, §9

Where [3] appears, read: Homo sapiens, 100 μM of the compound.

`C=C[C@]1(C)CC[C@@H](C(=C)C/C=C/c2ccc(-n3cncn3)cc2)C[C@H]1C(=C)C` [Compound 4]: the inhibition at 100 µM in experiment [1] (setting [3]) came out at 97.5 ± 0.4%; in experiment [2] (Homo sapiens, 48 h), 99.8 ± 0.08%. In addition, the half-maximal inhibitory concentration (IC50) in experiment [1] (Homo sapiens) was 57.2 ± 2.95 µM; in experiment [2] (Homo sapiens, HCT-116, 48 h) it was 50.9 ± 0.8 µM.

As to `C=C[C@]1(C)CC[C@@H](C(=C)C/C=C/c2ccc(C(=O)OCC[C@@H](C)CCC=C(C)C)cc2)C[C@H]1C(=C)C` [Compound 6], the inhibition at 100 µM in experiment [1] (setting [3]) was 14.4 ± 0.5%; in experiment [2] (Homo sapiens, 48 h), 21.7 ± 0.8%.

As to `C=C[C@]1(C)CC[C@@H](C(=C)C/C=C/c2ccc(C(=O)OCCOc3ccc(/C(=C(/CCCl)c4ccccc4)c4ccccc4)cc3)cc2)C[C@H]1C(=C)C` [Compound 10], the inhibition at 100 µM in experiment [1] (setting [3]) turned out to be 40.4 ± 0.6%; in experiment [2] (Homo sapiens, 48 h), 13.5 ± 0.3%.

As to `C=C[C@]1(C)CC[C@@H](C(=C)C)C[C@H]1C(=C)C` [β-elemene, reference compound], the “Anti-proliferative activity at 100 μM by concentration (%) A549 (tumor cell inhibition rate)” value in experiment [1] (100 μM of the compound) came out at 10.6 ± 0.5%. Further, the IC50 in experiment [1] is 227 ± 1.2 µM; in experiment [2] (48 h) it was 782 ± 51 µM. Besides, the “Anti-proliferative activity at 100 μM by concentration (%) HCT116 (tumor cell inhibition rate)” value in experiment [2] (100 μM of the compound, 48 h) turned out to be 0.6 ± 0.5%.
